{
  "source": "patent US8965708B2",
  "about": "“Method for the treatment of acquired lymphedema” (The Board of Trustees of the Leland Stanford Junior …, priority 2006, dated 2015)",
  "key": {"CD30 and IgE levels": {"system": "CD30 and IgE levels", "test": "Human study: serum analysis of CD30 and IgE", "format": "in vivo", "settings": "pre to post treatment"}, "patients with lymphedema [1]": {"system": "patients with lymphedema", "test": "Human study: histology of cutaneous biopsies (Hematoxylin and Eosin, Sirius Red)", "format": "in vivo", "settings": "90 days / 3 months after start of treatment", "source_text": "FIG. 24. Tissue architecture before and after ketoprofen treatment. (A) Cutaneous biopsies stained with Hematoxylin and Eosin. (B) Cutaneous biopsies stained with Hoechst. “Normal”: unaffected contralateral limb. “Lymphedema, Pre-Rx”: affected tissue at the start of treatment. “Lymphedema post-Rx”: affected tissue 90 days following treatment.\nFIG. 25. […] Fibrotic response (thickening tissue, collagen deposition in dermis and subdermis) is quantified by measuring the mean pixel intensity of Sirius Red uptake. […] In lymphedemous tissue (LY), an increase in fibrotic tissue is observed. Three months after the start of treatment (Rx/NL), the tissue has returned to a healthy state. Y axis is the ratio of paired samples. “NL/NL”: fibrosis in unaffected tissue, normalized to the pixel intensity of Sirius Red uptake in the unaffected tissue. “LY/NL”: fibrosis at the start of treatment, normalized to the pixel intensity of Sirius Red uptake in the unaffected tissue. “Rx/NL”: fibrosis after 3 months treatment, normalized to the pixel intensity of Sirius Red uptake in the unaffected tissue.\nBiopsies were taken pre- and post-treatment, and clinical responses were reassessed monthly. 44 participants were enrolled (FIG. 22), 38 of which had completed the study at the time the data was collected. Average age of the patient was 57 years+/−14 years (24-85 years of age). […]"}, "patients with lymphedema [2]": {"system": "patients with lymphedema", "test": "Human study: participant outcomes following the clinical trial", "format": "in vivo"}, "[3]": {"system": "TNF-α, MCP-1, VEGF-C, VEGF-D, VEGFR-3, Prox1, LYVE-1 expression", "test": "Targeted gene expression analysis by quantitative real-time RT-PCR in tail skin", "format": "in vivo, mouse", "experimental": "Primers and probes were from Assays-on-Demand (Applied Biosystems, Foster City, Calif.). cDNA was synthesized from 5 μg of total RNA with Taqman reverse-transcription reagents (Applied Biosystems) and amplified in triplicate at 50° C. for 2 minutes and 95° C. for 10 minutes, followed by 40 cycles of 95° C. for 15 seconds and 60° C. for 1 minute. Reactions without template and/or enzyme were used as negative controls. 18S ribosomal RNA served as an internal control. A standard curve derived from embryonic mouse RNA was plotted for each target gene by linear regression using SPSS software (v. 11.0, Applied Biosystems). RNA quantity was expressed relative to the corresponding 18S control. Fold differences were calculated by dividing the experimental results by the pooled normal results and were plotted on a log 10 scale."}, "[4]": {"system": "cytokine levels in tail skin", "test": "Tissue cytokine assays (Luminex) in tail skin homogenates", "format": "in vivo, mouse", "experimental": "Cytokine levels in tail skin were measured in normal controls and mice with untreated, NSAID-treated, and sTNF-R1-treated lymphedema (n=3 per group) sacrificed on postoperative day 7. The Luminex LabMap200 System was used to measure the levels of 42 cytokines from the supernatant of tissue homogenates. Multiplex cytokine kits were purchased from Panomics (Fremont, Calif.), and the assay was performed according to the manufacturer's recommendation with the following modifications: 25-50 μl of samples, standards, and controls were added in duplicate to 96-well filter plates pre-configured with a panel of anti-cytokine antibodies covalently linked to unique polystyrene beads. The plate was incubated overnight at 4° C. in the dark with shaking at 500 rpm, vacuum aspirated, and washed three times with 140 μl of wash buffer to remove unbound antigen. Biotinylated detection antibody solution (25 μl) was added to each well and incubated for 1 hour with shaking at 500 rpm at room temperature. The plate was incubated with 50 μl of streptavidin-phycoerythrin for 35 minutes and then with 120 μl of reading buffer for 3 minutes at room temperature with shaking. After laser excitation, digital images of the bead array were captured with a CCD camera and analyzed on a computer workstation with BeadView software."}, "[5]": {"system": "tail lymphedema in SKH-1 mice", "test": "Histology and histomorphometric quantitation of epidermal thickness (Example 4)", "format": "in vivo, mouse", "settings": "for histological changes in mice with lymphedema: hematoxylin/eosin", "experimental": "Immediately after sacrifice, 0.5-g sections of tail were harvested for histological analysis and RNA extraction. Sections extended from a point 4 mm proximal to the surgical incision to 8 mm beyond it. The specimens were fixed overnight in 4% paraformaldehyde, embedded in paraffin, cut into 5-μm sections, stained with hematoxylin and eosin (Richard-Allan Scientific, Kalamazoo, Mich.), and examined by light microscopy.\nEpidermal thickness was measured serially using digital images of histology slides stained with hematoxylin and eosin. Processing and analysis were performed using Adobe Photoshop CS4 and ImageJ (http://rsbweb.nih.gov/ij) as previously described with modifications (Sanders J E, et al. Comput Methods Programs Biomed. 1999; 59:167-180). Quantitative measurements were imported to Prism 5 software (GraphPad Software Inc., La Jolla, Calif.) for statistical analysis and graphing."}, "[6]": {"test": "Mass spectrometry of ketoprofen in tissue following topical administration", "format": "in vivo, mouse", "settings": "topical preparation delivered daily to mice; mass spectrometry of biopsy"}, "[7]": {"system": "CD11B+ cells and CD4+ helper T cells in affected tissue", "test": "Human study: immunohistochemistry of CD11b+ and CD4+ cell infiltrates in biopsies", "format": "in vivo", "settings": "4th clinical follow up visit", "experimental": "FIG. 26. […] 3 samples from each patient were analyzed by paired analysis: NL (biopsy from an unaffected limb), 1-LY (biopsy from affected limb), and 4-LY (4th clinical follow up visit).\nFIG. 29. Quantification of CD4+ helper T cell involvement in lymphedema pathology. 3 samples from each patient were analyzed by paired analysis: NL (biopsy from an unaffected limb), 1-LY (biopsy from affected limb), and 4-LY (4th clinical follow up visit).\nTo determine the cellular basis for the lymphedema pathology, lymphedemous tissue was analyzed for the aberrant presence of immune cells."}, "[8]": {"system": "gene expression in lymphedemous tissue", "test": "Paired whole genome transcriptional profiling of human lymphedema (Agilent human array)", "format": "in vivo", "settings": "of the 8431 genes altered in lymphedema versus normal tissue", "experimental": "Paired whole genome transcriptional profiling was performed using the Agilent human array (n=30). Expression profiles of untreated and post-treated lymphedemous tissue were compared to the normal cutaneous RNA from the same subject."}, "Log Kow": {"test": "Log Kow", "format": "physicochemical"}, "patients with lymphedema [9]": {"system": "patients with lymphedema", "test": "Human study: volume of fluid lost from affected limb after 90 days ketoprofen", "format": "in vivo", "settings": "75 mg orally twice or three times per day for 90 days", "experimental": "FIG. 23. […] For the purposes of comparing bilateral results to unilateral results, volume lost in bilateral lymphedema was calculated by determining the total volume lost and dividing by 2.\nBiopsies were taken pre- and post-treatment, and clinical responses were reassessed monthly. 44 participants were enrolled (FIG. 22), 38 of which had completed the study at the time the data was collected. Average age of the patient was 57 years+/−14 years (24-85 years of age). The average length of time that the patient had had lymphedema was 10+/−10 years (0.5-40 years). Lymphedema was due to the following: breast cancer (12 patients (27.3%)); cervical cancer (6 patients (13.6%)); uterine cancer (2 patients (4.5%)); ovarian cancer (2 patients (4.5%)); penile cancer (1 patient (2.3%)); Hodgkin's lymphoma (2 patients (4.5%)); trauma (5 patients (11.4%)); infection (3 patients (6.8%)); venous insufficiency (3 patients (6.8%)); May-Thurner syndrome (2 patients (4.5%)); primary lymphedema ([…]); other (2 patients (4.5%))."}, "[10]": {"settings": "day 11, lymphedema mice, listed as NSAID"}, "[11]": {"settings": "lymphedema mice, listed as NSAID"}, "[12]": {"settings": "postoperative day 7, listed as NSAID"}},
  "note": "Entries after “also recorded” stand apart in the source; their conditions may differ.",
  "data": [
    {"smiles": "CC(C(=O)O)c1cccc(C(=O)c2ccccc2)c1", "note": "(stereo not shown) [ketoprofen]", "values": [
      {"measurement": "serum CD30 amounts, average decrease after treatment", "setting": "CD30 and IgE levels", "result": 13, "unit": "%"},
      {"measurement": "tissue architecture, protein deposition and fibrosis in cutaneous biopsies", "setting": "patients with lymphedema [1]", "result": "reversal of disease-associated protein deposition and fibrosis; also recorded: restoration in the tissue architecture; also recorded: abrogates the inflammation that leads to a fibrotic response in the skin"},
      {"measurement": "participants who describe the affected limb as normal in size", "setting": "patients with lymphedema [2]", "result": 2, "unit": "%"},
      {"measurement": "participants who described relief from pain", "setting": "patients with lymphedema [2]", "result": 7, "unit": "%"},
      {"measurement": "participants who discontinued chronic use of compression garments", "setting": "patients with lymphedema [2]", "result": 9, "unit": "%"},
      {"measurement": "participants who elected to continue off-label treatment", "setting": "patients with lymphedema [2]", "result": 100, "unit": "%"},
      {"measurement": "participants who noted that the affected limb feels lighter", "setting": "patients with lymphedema [2]", "result": 7, "unit": "%"},
      {"measurement": "participants who noted that the compression garment is loose", "setting": "patients with lymphedema [2]", "result": 2, "unit": "%"},
      {"measurement": "Prox1 expression", "setting": "[3]; day 11, lymphedema mice", "result": "significant, parallel up-regulation"},
      {"measurement": "TNF-α expression (mRNA)", "setting": "[3]; day 11, lymphedema mice", "result": "further increased"},
      {"measurement": "MCP-1 expression (mRNA)", "setting": "[3]; [10]", "result": "significantly induced"},
      {"measurement": "Prox1 expression", "setting": "[3]; [10]", "result": "significantly induced"},
      {"measurement": "TNF-α expression (mRNA)", "setting": "[3]; [10]", "result": "significantly induced"},
      {"measurement": "VEGF-C expression (mRNA)", "setting": "[3]; lymphedema mice", "result": "significant upregulation"},
      {"measurement": "VEGFR-3 expression", "setting": "[3]; lymphedema mice", "result": "significantly upregulated"},
      {"measurement": "VEGF-C expression (mRNA)", "setting": "[3]; [11]", "result": "significant, parallel up-regulation; also recorded: significantly induced"},
      {"measurement": "VEGFR-3 expression", "setting": "[3]; [11]", "result": "significant, parallel up-regulation; also recorded: significantly induced"},
      {"measurement": "VEGF-D expression (mRNA)", "setting": "[3]; lymphedema mice, vs vehicle", "result": "significant upregulation"},
      {"measurement": "MCP-1 tissue levels (protein)", "setting": "[4]; postoperative day 7", "result": "further increased"},
      {"measurement": "MCP-3 tissue levels (protein)", "setting": "[4]; [12]", "result": "significantly reduced; also recorded: inhibited"},
      {"measurement": "macrophage inflammatory protein 1a (MIP1a) tissue levels", "setting": "[4]; [12]", "result": "inhibited"},
      {"measurement": "TNF-α tissue levels (protein)", "setting": "[4]; postoperative day 7, median fluorescence intensity", "result": "significantly higher"},
      {"measurement": "epidermal thickness (ET) compared to untreated LY mice", "setting": "[5]; FIG. 14B", "result": "significantly reduced"},
      {"measurement": "epidermal thickness decreased, compared to untreated lymphedema mice", "setting": "[5]; day 11", "result": "47.0±5.1", "unit": "%"},
      {"measurement": "histological changes in mice with lymphedema", "setting": "[5]; day 11", "result": "substantial normalization from the untreated histology"},
      {"measurement": "histological changes in mice with lymphedema", "setting": "[5]; day 11, listed as NSAID", "result": "normalization of histological changes; also recorded: normalizes these pathological findings"},
      {"measurement": "permeation of topically administered drug into skin layers", "setting": "[6]", "result": "permeates into the deepest layers of the skin"},
      {"measurement": "CD4+ cells in affected tissue after treatment", "setting": "[7]", "result": "absent"},
      {"measurement": "CD11B+ cells in affected tissue after treatment", "setting": "[7]", "result": "absent; also recorded: returns CD11b counts to normal"},
      {"measurement": "fraction of altered genes displaying directional normalization after treatment", "setting": "[8]", "result": 72, "unit": "%"},
      {"measurement": "number of genes displaying directional normalization after treatment", "setting": "[8]", "result": 6050},
      {"measurement": "Log Kow", "setting": "Log Kow", "result": 3.00},
      {"measurement": "fluid lost from the affected limb, unilateral lymphedema (average)", "setting": "patients with lymphedema [9]", "result": 354, "unit": "milliliters"},
      {"measurement": "fluid lost from one affected limb, bilateral lymphedema (average)", "setting": "patients with lymphedema [9]; total volume lost divided by 2", "result": 533, "unit": "milliliters"}
    ]}
  ]
}
